Data published in patent publication US11065231B2, “Compounds and methods for the targeted degradation of interleukin-1 receptor- associated kinase 4 polypeptides” (Arvinas Operations, Inc., priority 2017, dated 2021).
Where two headings read alike, the source gives them in different places.

Columns and labels:
[1] = biological target: T1, IRAK4 (Homo sapiens (Human), UniProt Q9NWZ3); assay: Biochemical Z'-Lyte FRET assay for IRAK4 kinase inhibition; conditions: 2 nM enzyme, 1 mM ATP, 2 μM substrate
Procedure: Biochemical Assay for IRAK4 Kinase Inhibition.
A Z′-Lyte assay based on a fluorescence resonance energy transfer (FRET) readout was developed for measuring IRAK4-dependent phosphorylation of a FRET-peptide substrate as described by Thermo Fisher Scientific (Grand Island, N.Y.). At a starting concentration of 1.5 mM, the identified compounds were serially diluted with 100% dimethyl sulfoxide (DMSO) in 3-fold increments, into Greiner bio-one 96-well plates (cat. #: 650201, Greiner bio-one, Monroe, N.C.). Compounds were then transferred to intermediate Greiner bio-one 96-well plates and diluted 10-fold with Kinase assay buffer (25 mM HEPES, pH 7.5, 10 mM MgCl2, 10 mM MnCl2, 1 mM EGTA, and 0.01% Brij-35, 2 mM DTT). Three μL of the serially diluted compounds were then transferred in duplicate to low-volume 384-well black proxiplates (cat. #: 6008269; Perkin Elmer, Akron, Ohio), to give duplicate twelve-point concentration curves. Six μl of a 2.5× solution of IRAK4 enzyme (cat #: 40064, BPS Bioscience, San Diego, Calif.) in kinase buffer was added to each well, followed by a 10 minutes pre-incubation step. Reactions were initiated by adding 6 μl of a 2.5× substrate mix of ATP and Z′-Lyte Ser/Thr 7 peptide (cat. #: PV3180, Thermo Fisher Scientific, Grand Island, N.Y.) and proceeded at room temperature for 1 hour. The final concentration of key reagents in the 15 uL kinase reactions were 2 μM substrate, 2 nM enzyme, and 1 mM ATP, with dose responses starting at 30 μM compound. At the end of the kinase reactions, 5 μl of developing solution (as instructed in for cat. #: PV3180, Thermo Fisher Scientific, Grand Island, N.Y.) was added to each well and incubated at room temperature for 1 hour. All wells were read on an Envision 2105 Multilabel fluorescence plate reader (Perkin Elmer, Waltham, Mass.) at 400 nm excitation and 460 nm/530 nm emission. Plus and minus 100% inhibition controls were used to calculate percent inhibition and IC50 curves were generated using Graphpad Prism (La Jolla, Calif.).

[2] = biological target: T1, IRAK4; assay: Western blot assay for assessing degradation of IRAK4 in MCF7 cells; type: cell-based
Procedure: Western Blot Assay for Assessing Degradation of IRAK4.
MCF7 cells, purchased from ATCC (Manassas, Va.), were used at a passage range of 2-19. Cells were seeded at 50% confluency in 96-well plates at 180 μl/well in cell media (Dulbecco's Modified Eagle medium/nutrient F-12 Ham-10% Fetal Bovine Serum) and incubated overnight. The next morning, compounds were serially diluted and added (20 μl into 180 μl media) at a final DMSO concentration of 0.1%. Cells were rinsed with cell media and replaced with compounds in media, followed by incubation overnight. After a 24 hour incubation with compound, cell were harvested (90-100% confluent at harvest). Cells were then washed once with 100 μl of Dulbecco's hosphate-buffered saline and then lysed with 40 μl of lysis buffer (1×RIPA+HALT protease inhibitor+HALT phosphatase inhibitor) on ice for 10 minutes. Lysates were then cleaned by filtration in 1.2 µm filter plates followed by western blotting. For each sample, 30 μl of lysate were added to 10 μl of 4×LDS sample buffer, then denatured at 95° C. for 5 minutes in the thermal cycler and placed on ice. Fifteen μL of each sample were then loaded on 4-15% Tris/Glycine gels and run for 25 minutes at 250 (constant) volts in 1× Tris/Glycine buffer. Protein was transferred from gels to nitrocellulose using a BioRad Turbo dry-transfer unit with the Turbo/midi default program. All blots were rinsed with ddH2O and blocked for 1 hour at room temperature in 5% bovine serum albumin (BSA) in tris-buffered saline-Tween 20 (TBS-T) (0.1%) on rocker. Blots were exposed to primary antibody in 5% BSA in TBS-T (0.1%) overnight at 4° C. on rocker. Primary antibodies, diluted 1:1000 in […], were as follows: anti-IRAK4 (cat. #: ab119942, Abcam, Cambridge, Mass.), anti-IRAK1 (cat. #: CST 4504S, Cell Signaling Technology, Danvers, Mass.), and anti-Beta-actin (Cat. #: ab8227, Abcam, Cambridge, Mass.). Blots were then washed with TBS-T (0.1%) three times for 5 minutes on a rocker at room temperature. Secondary antibody (1:18,000 anti-rabbit-HRP and/or anti-mouse-HRP in 5% BSA in TBST (0.1%) was then added, and blots incubated at room temperature rocker for 1 hour. Blots were washed 3 times in TBS-T (0.1%) for 5 minutes at room temperature on the rocker. Signal was developed with Femto Max substrate for 5 minutes and blots read on a ChemiDoc. Percent degradation was assessed by comparing IRAK4 signal in compound vs. DMSO treated lysates.

[3] = Table 5, IRAK4 degradation, 24 hour incubation, read-out: IRAK4 DC50

T1 sequence (Q9NWZ3 whole entry): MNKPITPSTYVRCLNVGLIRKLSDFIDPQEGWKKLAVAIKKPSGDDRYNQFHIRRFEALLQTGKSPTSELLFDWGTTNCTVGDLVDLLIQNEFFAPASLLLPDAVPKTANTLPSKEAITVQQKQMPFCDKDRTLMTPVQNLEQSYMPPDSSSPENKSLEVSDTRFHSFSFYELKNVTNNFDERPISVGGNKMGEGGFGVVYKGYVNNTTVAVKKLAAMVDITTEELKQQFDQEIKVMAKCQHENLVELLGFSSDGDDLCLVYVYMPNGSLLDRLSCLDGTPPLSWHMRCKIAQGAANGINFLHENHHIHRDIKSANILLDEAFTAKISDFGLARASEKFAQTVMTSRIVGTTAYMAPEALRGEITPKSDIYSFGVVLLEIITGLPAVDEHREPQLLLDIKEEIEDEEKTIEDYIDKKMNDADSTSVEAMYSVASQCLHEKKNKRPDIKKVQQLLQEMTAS

`CN(CCOCCOc1ccc2c(c1)C(=O)N(C1CCC(=O)NC1=O)C2=O)c1cccc(-n2c(NC(=O)c3cccc(C(F)(F)F)c3)nc3cc(F)ccc32)c1` (stereo not drawn) [compound 51, N-(1-(3-((2-(2-((2-(2,6-dioxopiperidin-3-yl)-1,3-dioxoisoindolin-5-yl)oxy)ethoxy)ethyl)(methyl)amino)phenyl)-5-fluoro-1H-benzo[d]imidazol-2-yl)-3-(trifluoromethyl)benzamide] gave an IC50 [1] of at least 1000 nM and a DC50 [2, 3] of at least 1000 nM.

In the case of `O=C1CCC(N2C(=O)c3ccc(OCCOCCOCCOC[C@H]4CC[C@@H](n5c(NC(=O)c6cccc(C(F)(F)F)c6)nc6cc(F)ccc65)CC4)cc3C2=O)C(=O)N1` (stereo partly drawn) [compound 47, N-(1-((1s,4s)-4-((2-(2-(2-((2-(2,6-dioxopiperidin-3-yl)-1,3-dioxoisoindolin-5-yl)oxy)ethoxy)ethoxy)ethoxy)methyl)cyclohexyl)-5-fluoro-1H-benzo[d]imidazol-2-yl)-3-(trifluoromethyl)benzamide], the IC50 [1] is reported as at least 1000 nM and the DC50 [2, 3] is reported as at least 1000 nM.

With `N#Cc1ccc2ncnc(N[C@H]3CC[C@H](N4CCN(S(=O)(=O)CCOCCOCCOc5ccc6c(c5)C(=O)N(C5CCC(=O)NC5=O)C6=O)CC4)CC3)c2c1` (stereo partly drawn) [compound 36] the IC50 [1] was at least 1000 nM and the DC50 [2, 3] was at least 1000 nM.

Molecule `O=C1CCC(N2Cc3cc(OCCOCCN4CCN(Cc5ccc6c(c5)nc(NC(=O)c5cccc(C(F)(F)F)c5)n6[C@H]5CC[C@@H](CO)CC5)CC4)ccc3C2=O)C(=O)N1` (stereo partly drawn) [compound 6, N-(5-((4-(2-(2-((2-(2,6-dioxopiperidin-3-yl)-1-oxoisoindolin-5-yl)oxy)ethoxy)ethyl)piperazin-1-yl)methyl)-1-((1s,4s)-4-(hydroxymethyl)cyclohexyl)-1H-benzo[d]imidazol-2-yl)-3-(trifluoromethyl)benzamide] has an IC50 [1] of under 30 nM and a DC50 [2, 3] of at least 1000 nM.

Work on `CN(CCOCCOCCOc1ccc2c(c1)C(=O)N(C1CCC(=O)NC1=O)C2=O)c1cccc(-n2c(NC(=O)c3cccc(C(F)(F)F)c3)nc3cc(F)ccc32)c1` (stereo not drawn) [compound 49, N-(1-(3-((2-(2-(2-((2-(2,6-dioxopiperidin-3-yl)-1,3-dioxoisoindolin-5-yl)oxy)ethoxy)ethoxy)ethyl) (methyl)amino)phenyl)-5-fluoro-1H-benzo[d]imidazol-2-yl)-3-(trifluoromethyl)benzamide] yielded an IC50 [1] of at least 1000 nM and a DC50 [2, 3] of at least 1000 nM.

With `N#Cc1ccc2ncnc(N[C@H]3CC[C@H](N4CCN(S(=O)(=O)CCOCCOCCOCCOCCOc5ccc6c(c5)C(=O)N(C5CCC(=O)NC5=O)C6=O)CC4)CC3)c2c1` (stereo partly drawn) [compound 40] the IC50 [1] was at least 1000 nM and the DC50 [2, 3] was at least 1000 nM.

For `O=C1CCC(N2C(=O)c3cccc(NCCOCCOCCN4CCN(Cc5ccc6c(c5)nc(NC(=O)c5cccc(C(F)(F)F)c5)n6[C@H]5CC[C@@H](CO)CC5)CC4)c3C2=O)C(=O)N1` (stereo partly drawn) [compound 66, N-(5-((4-(2-(2-(2-((2-(2,6-dioxopiperidin-3-yl)-1,3-dioxoisoindolin-4-yl)amino)ethoxy)ethoxy)ethyl)piperazin-1-yl)methyl)-1-((1s,4s)-4-(hydroxymethyl)cyclohexyl)-1H-benzo[d]imidazol-2-yl)-3-(trifluoromethyl)benzamide], the IC50 [1] was under 30 nM and the DC50 [2, 3] was 300 to 1000 nM.

`Cc1ccc(-n2nc(N3CCN(CCOCCOCCOc4ccc5c(c4)C(=O)N(C4CCC(=O)NC4=O)C5=O)CC3)cc2NC(=O)c2cnn3cccnc23)nc1` (stereo not drawn) [compound 25, N-(3-(4-(2-(2-(2-((2-(2,6-dioxopiperidin-3-yl)-1,3-dioxoisoindolin-5-yl)oxy)ethoxy)ethoxy)ethyl)piperazin-1-yl)-1-(5-methylpyridin-2-yl)-1H-pyrazol-5-yl)pyrazolo[1,5-a]pyrimidine-3-caboxamide] showed an IC50 [1] of 30 to 100 nM and a DC50 [2, 3] of at least 1000 nM.

`Cc1ccc(-n2nc(N3CCN(CCOCCOCCOCCOc4ccc5c(c4)C(=O)N(C4CCC(=O)NC4=O)C5=O)CC3)cc2NC(=O)c2cnn3cccnc23)nc1` (stereo not drawn) [compound 26, N-(3-(4-(2-(2-(2-(2-((2-(2,6-dioxopiperidin-3-yl)-1,3-dioxoisoindolin-5-yl)oxy)ethoxy)ethoxy)ethoxy)ethyl)piperazin-1-yl)-1-(5-methylpyridin-2-yl)-1H-pyrazol-5-yl)pyrazolo[1,5-a]pyrimidine-3-caboxamide] showed an IC50 [1] of 300 to 1000 nM and a DC50 [2, 3] of at least 1000 nM.

`O=C1CCC(N2C(=O)c3ccc(OCCOCCN4CCN(Cc5ccc6c(c5)nc(NC(=O)c5cccc(C(F)(F)F)c5)n6[C@H]5CC[C@@H](CO)CC5)CC4)cc3C2=O)C(=O)N1` (stereo partly drawn) [compound 2, N-(5-((4-(2-(2-((2-(2,6-dioxopiperidin-3-yl)-1,3-dioxoisoindolin-5-yl)oxy)ethoxy)ethyl)piperazin-1-yl)methyl)-1-((1s,4s)-4-(hydroxymethyl)cyclohexyl)-1H-benzo[d]imidazol-2-yl)-3-(trifluoromethyl)benzamide] showed an IC50 [1] of under 30 nM, a DC50 ([2]; Table 1, 24 hours, read-out: IRAK4 by western DC50) of 10 nM and a DC50 [2, 3] of under 30 nM. For the same molecule, the DC50 ([2]; western blot, 24 hour incubation, read-out: DC50 (IRAK4 degradation)) was 9.7 nM.

With “N-(1-(3-((2-(2,6- dioxopiperidin-3-yl)-1,3- dioxoisoindolin-5- yl)oxy)ethyl)(methyl)amino) phenyl)-5-(piperadin-1- yl)methyl)-1H- benzo[d]imidazol-2-yl)-3- (trifluoromethyl)benzamide [compound 68]” the IC50 [1] was at least 1000 nM, the “IRAK4 Dmax (%)” value ([2]; Table 5, IRAK4 degradation, 24 hour incubation) was “C (50 ≥ C > 30)” and the DC50 [2, 3] was 300 to 1000 nM.

Molecule `Cc1ncsc1-c1ccc(CNC(=O)[C@@H]2C[C@@H](O)CN2C(=O)[C@@H](NC(=O)COCCOCCOCCN2CCN(Cc3ccc4c(c3)nc(NC(=O)c3cccc(C(F)(F)F)c3)n4C3CCC(CO)CC3)CC2)C(C)(C)C)cc1` (mixture of isomers) [compound 13, (2S,4R)-1-((S)-2-(tert-butyl)-14-(4-((1-((1SR,4SR)-4-(hydroxymethyl)cyclohexyl)-2-(3-(trifluoromethyl)benzamido)-1H-benzo[d]imidazol-5-yl)methyl)piperazin-1-yl)-4-oxo-6,9,12-trioxa-3-azatetradecanoyl)-4-hydroxy-N-(4-(4-methylthiazol-5-yl)benzyl)pyrrolidine-2-carboxamide] has an IC50 [1] of 300 to 1000 nM and a DC50 [2, 3] of at least 1000 nM.

`COc1cc2nn(C3CCN(CCOCCOc4ccc5c(c4)C(=O)N(C4CCC(=O)NC4=O)C5=O)CC3)cc2cc1NC(=O)c1cccc(C(F)(F)F)n1` (stereo not drawn) [compound 58, N-(2-(1-(2-(2-((2-(2,6-dioxopiperidin-3-yl)-1,3-dioxoisoindolin-5-yl)oxy)ethoxy)ethyl)piperidin-4-yl)-6-methoxy-2H-indazol-5-yl)-6-(trifluoromethyl)picolinamide] was tested, and the IC50 [1] was under 30 nM, the DC50 [2, 3] was under 30 nM and the Dmax ([2]; Table 5, IRAK4 degradation, 24 hour incubation, read-out: IRAK4 Dmax (%)) was 50 to 70%.
